In US9265268B2, “Method of handling bananas” (priority 2009, dated 2016):

How the values were obtained:
Format in all cases: in vivo, Musa
[1] = test system: bananas; test: Example 2C: evaluation process C (22° C. after MCP); crown mold and crown rot; conditions: 7 days in bag at approx. 22° C., rating 0-3
From the text: Bananas may be inspected for the incidence of crown mold. Crown mold is observed and given a numerical rating as follows: 0 (apparently healthy and disease-free fruit); 1 (mycelia not easily detectable with naked eye, but obvious slight disease is visible on the crown); 2 (presence of some visible mycelia on the crown and moderate disease damage on the crown; 3 (clearly visible mycelia on the crown with severe disease damage on the crown).
Bananas may be inspected for the incidence of crown rot. When disease damage is apparent but no fungus is visible, crown rot is reported, with the degree of damage assessed as follows: 0 (apparently healthy and disease-free fruit); 1 (obvious slight disease is visible on the crown); 2 (moderate disease damage on the crown; 3 (severe disease damage on the crown).
Bananas were harvested at 13 weeks of age. Fruit bunches were separated into hands, then washed, and excess latex was removed in chlorinated water tanks using standard commercial practices. The washed hands of bananas were further broken into clusters and treated with fungicide. Clusters were placed into plastic bags; each bag held approximately 1.4 kg (3 lbs) of bananas. The bananas remained in these bags until they were removed for evaluation (see below).
At day 5 at approximately 4 pm, the bananas had reached color stage 2.5 to 3.5. Treatment groups PE-3-C, PE-10-C, MAP-3, and MAP-10 were then exposed to 1-MCP overnight at the concentrations shown above.
Some of the bananas from each group described in Example 2 were evaluated by process “C” as follows: After treatment groups PE-3-C, PE-10-C, MAP-3, and MAP-10 received exposure to 1-MCP, the bananas remained in their bags and were held at approximately 22° C. The bananas were inspected daily while they remained in the bags.
After 7 days at approximately 22° C., results were as follows: […]

[2] = test system: bananas; test: Example US-7c: various number of bananas per bag (day on which sugar spots developed); conditions: for SS day (day during holding at 17.8° C. on which sugar spots developed): MAP/MCP: MAP type M, 1,000 ppb 1-MCP
Procedure: Bananas were handled and tested as in Example US-1, except that the number of bananas (“# of B”) per bag was varied. Results for MAP bags type M were compared at 0 1-MCP (“MAP only”) and at 1,000 ppb of 1-MCP (“MAP/MCP”). MAP only samples are comparative; MAP/MCP samples exemplify the present invention.
Also, the sugar spots were assessed. In this experiment, the number of the day during the holding at 17.8° C. on which sugar spots developed is noted (“SS day”). Bananas in T-bags (with either 0 or 1,000 ppb of 1-MCP) developed sugar spots on day 3.

[3] = test system: bananas; test: Example US-5: various levels of 1-MCP; set-up: SS (sugar spots): scale not given here; conditions: 7 days
Procedure: Bananas were grown, shipped, and ripened as described in Example US-1. All bananas were in T-bags through the ripening cycle. At color stage 3.0 to 4.0, the bananas, still in T-bags, were placed in various airtight containers; in each container, a specified concentration of 1-MCP was released into the air; bananas remained in those containers for 12 hours. After that, half of each treatment group was transferred to MAP bags, and all bananas were placed into post-MCP storage as in US-1. At the end of 7 days, bananas were evaluated for sugar spots (SS), color stage (CS), and firmness (F). Firmness was measured with a Fruit Texture Analyzer (Güss Company, Republic of South Africa) using a probe of 8 mm diameter.

[4] = test system: bananas; test: Example US-3: comparison of production batches of MAP
From the text: Bananas were harvested and shipped to Ephrata, Pa. as described in Example US-1 above. Upon arrival, bananas were removed from poly liners and placed into one of three types of bags: • (1) T-bags (as described above) • (2) MAP bags type M (as described above) • (3) MAP bags type D (as described above). Bananas in bags were exposed to the ripening cycle described above, except that the first day (“day 0”) of the ripening cycle was omitted. The bananas that were exposed to 1-MCP received that exposure when they were at color stage 2 to 2.2.
Additionally, a group of bananas remained in their bags at 17.8° C. for 17 days after exposure to 1-MCP and were evaluated at the end of those 17 days.

[5] = MAP-10: MAP bag, 1000 ppb 1-MCP
[6] = PE-10-C: PE bag, 1000 ppb 1-MCP
[7] = MAP with non-zero 1-MCP, 17 days in bags at 17.8° C., versus MAP without 1-MCP or T-bags with 1-MCP

**Q.** Which results are given for `CC1=CC1` [1-MCP, 1-methylcyclopropene]?
**A.** Crown Mold ([1]; MAP-3: MAP bag, 300 ppb 1-MCP): 1.04; Crown Rot ([1]; MAP-3: MAP bag, 300 ppb 1-MCP): 1.18; Crown Mold [1, 5]: 1.00; Crown Rot [1, 5]: 1.18; Crown Mold ([1]; PE-3-C: PE bag, 300 ppb 1-MCP): 1.50; Crown Rot ([1]; PE-3-C: PE bag, 300 ppb 1-MCP): 1.72; Crown Mold [1, 6]: 1.09; Crown Rot [1, 6]: 1.27; SS day (day during holding at 17.8° C. on which sugar spots developed) ([2]; # of B 1): 4; SS day (day during holding at 17.8° C. on which sugar spots developed) ([2]; # of B 3): 5; SS day (day during holding at 17.8° C. on which sugar spots developed) ([2]; # of B 5): 6; SS day (day during holding at 17.8° C. on which sugar spots developed) ([2]; # of B 7): 8; SS day (day during holding at 17.8° C. on which sugar spots developed) ([2]; # of B 9): 8; SS day (day during holding at 17.8° C. on which sugar spots developed) ([2]; # of B 12): 8; day on which sugar spots developed ([2]; T-bags, 1,000 ppb of 1-MCP): 3; CS (color stage) ([3]; MAP, 1 ppb 1-MCP): 5.2; F (firmness) ([3]; MAP, 1 ppb 1-MCP): 0.584 kg; SS (sugar spots) ([3]; MAP, 1 ppb 1-MCP): 1.8; CS (color stage) ([3]; MAP, 5 ppb 1-MCP): 4.8; F (firmness) ([3]; MAP, 5 ppb 1-MCP): 0.602 kg; SS (sugar spots) ([3]; MAP, 5 ppb 1-MCP): 0.5; CS (color stage) ([3]; MAP, 10 ppb 1-MCP): 5.4; F (firmness) ([3]; MAP, 10 ppb 1-MCP): 0.599 kg; SS (sugar spots) ([3]; MAP, 10 ppb 1-MCP): 1.5; CS (color stage) ([3]; MAP, 25 ppb 1-MCP): 5.6; F (firmness) ([3]; MAP, 25 ppb 1-MCP): 0.603 kg; SS (sugar spots) ([3]; MAP, 25 ppb 1-MCP): 0.8; CS (color stage) ([3]; MAP, 50 ppb 1-MCP): 5.5; F (firmness) ([3]; MAP, 50 ppb 1-MCP): 0.593 kg; SS (sugar spots) ([3]; MAP, 50 ppb 1-MCP): 1.0; CS (color stage) ([3]; MAP, 100 ppb 1-MCP): 5.2; F (firmness) ([3]; MAP, 100 ppb 1-MCP): 0.581 kg; SS (sugar spots) ([3]; MAP, 100 ppb 1-MCP): 1.0; CS (color stage) ([3]; MAP, 200 ppb 1-MCP): 4.9; F (firmness) ([3]; MAP, 200 ppb 1-MCP): 0.592 kg; SS (sugar spots) ([3]; MAP, 200 ppb 1-MCP): 0.8; CS (color stage) ([3]; MAP, 1000 ppb 1-MCP): 6.2; F (firmness) ([3]; MAP, 1000 ppb 1-MCP): 0.617 kg; SS (sugar spots) ([3]; MAP, 1000 ppb 1-MCP): 1.8; CS (color stage) ([3]; MAP, 5000 ppb 1-MCP): 6.2; F (firmness) ([3]; MAP, 5000 ppb 1-MCP): 0.602 kg; SS (sugar spots) ([3]; MAP, 5000 ppb 1-MCP): 1.2; CS (color stage) ([3]; MAP, 50000 ppb 1-MCP): 5.6; F (firmness) ([3]; MAP, 50000 ppb 1-MCP): 0.585 kg; SS (sugar spots) ([3]; MAP, 50000 ppb 1-MCP): 2.5; CS (color stage) ([3]; T-bag, 1 ppb 1-MCP): 6.6; F (firmness) ([3]; T-bag, 1 ppb 1-MCP): 0.561 kg; SS (sugar spots) ([3]; T-bag, 1 ppb 1-MCP): 2.2; CS (color stage) ([3]; T-bag, 5 ppb 1-MCP): 6.6; F (firmness) ([3]; T-bag, 5 ppb 1-MCP): 0.571 kg; SS (sugar spots) ([3]; T-bag, 5 ppb 1-MCP): 2.8; CS (color stage) ([3]; T-bag, 10 ppb 1-MCP): 6.6; F (firmness) ([3]; T-bag, 10 ppb 1-MCP): 0.568 kg; SS (sugar spots) ([3]; T-bag, 10 ppb 1-MCP): 2.0; CS (color stage) ([3]; T-bag, 25 ppb 1-MCP): 6.2; F (firmness) ([3]; T-bag, 25 ppb 1-MCP): 0.576 kg; SS (sugar spots) ([3]; T-bag, 25 ppb 1-MCP): 2.5; CS (color stage) ([3]; T-bag, 50 ppb 1-MCP): 7.0; F (firmness) ([3]; T-bag, 50 ppb 1-MCP): 0.591 kg; SS (sugar spots) ([3]; T-bag, 50 ppb 1-MCP): 2.2; CS (color stage) ([3]; T-bag, 100 ppb 1-MCP): 7.0; F (firmness) ([3]; T-bag, 100 ppb 1-MCP): 0.571 kg; SS (sugar spots) ([3]; T-bag, 100 ppb 1-MCP): 2.5; CS (color stage) ([3]; T-bag, 200 ppb 1-MCP): 7.0; F (firmness) ([3]; T-bag, 200 ppb 1-MCP): 0.589 kg; SS (sugar spots) ([3]; T-bag, 200 ppb 1-MCP): 3.0; CS (color stage) ([3]; T-bag, 1000 ppb 1-MCP): 7.0; F (firmness) ([3]; T-bag, 1000 ppb 1-MCP): 0.601 kg; SS (sugar spots) ([3]; T-bag, 1000 ppb 1-MCP): 3.0; CS (color stage) ([3]; T-bag, 5000 ppb 1-MCP): 6.2; F (firmness) ([3]; T-bag, 5000 ppb 1-MCP): 0.579 kg; SS (sugar spots) ([3]; T-bag, 5000 ppb 1-MCP): 3.0; CS (color stage) ([3]; T-bag, 50000 ppb 1-MCP): 6.6; F (firmness) ([3]; T-bag, 50000 ppb 1-MCP): 0.563 kg; SS (sugar spots) ([3]; T-bag, 50000 ppb 1-MCP): 2.8; development of sugar spots on holding at 17.8° C. ([4]; MAP and non-zero 1-MCP): delayed the development of sugar spots; color-stage numbers [4, 7]: lower color-stage numbers; number of sugar spots [4, 7]: lower number of sugar spots
